Test system: sensitized rat intestine
Test: In vitro anaphylaxis: ovalbumin (antigen)-induced contractile response of sensitized rat intestine in organ bath
Format: cell-based
Conditions: control peptide feG 10^−8 M
Method: Data are expressed as the mean +/− standard error. The data were analyzed using Student's t test for paired samples. Significant differences were accepted if p <0.05. Outlier analysis was performed using a modified Z-score that uses the median of absolute deviation A Z-score with an absolute value of greater than 4.0 was labeled as a potential outlier, and the corresponding data value was excluded.
Male Sprague Dawley rats (Charles River Laboratories, Montreal, QC) of initial weights of 150 g were maintained with lights on from 700 to 1900 h and given food and water ad libitum. The rats were sensitized to 1 mg ovalbumin (OA) using 50 ng of pertussis toxin (Sigma-Aldrich, St. Louis, Mo.) as an adjuvant.
Five to eight weeks following sensitization, the terminal duodenum of the rats was excised and 1 cm sections were mounted in 25 ml organ baths, containing bicarbonate Krebs′ buffer, with 1.0 g of tension. The isometric force generated in response to OA and carbachol (CAR; (2-[(aminocaronyl)oxyl-N,N,N-trimethylethanaminium), a cholinergic agonist, (Sigma-Aldrich) was measured using a Grass Force Displacement Transducer FTO3 (Quincy, MA>. Data were recorded with PolyView software (Polybytes, Inc., Cedar Rapids, Iowa). The tissues were allowed to equilibrate for 30 min during which they were washed several times with buffer, and applied tension was adjusted.
Eight tissue segments were mounted in separate tissue baths, with one tissue segment serving to evaluate if the intestinal tissues elicit a contractile response to the antigen. […] In the absence of a contractile response to antigen the tissues were discarded, and another animal taken.
Once peak contractile responses were attained the tissues were washed three times, baseline re-established and peak contractile response to 10^−5M CAR obtained. The mucosa was then scraped from the tissue, and the mass of the muscle determined. Responses were determined as grams of force/mg wet tissue.
Contractile responses to OA and CAR were measured at peak contraction, and calculated as grams of force per gram wet tissue. Results are expressed in three formats: • i) the amplitude of the OA-induced contractile response (grams of force/mg wet tissue), • ii) the ratio of the Bee Bloom response to the OR response (Bee Bloom/OA) (i.e. animal matched control), • iii) the ratio of the OA and CAR-induced contractile responses (ONCAR) (i.e. tissue matched controls).

D-phenylalanine-D-glutamate-Glycine [control]
inhibition of antigen-induced contractions (FIGS. 1 and 2): significantly inhibited | inhibition of antigen-induced contractions, ratio to OA response, animal matched control (FIG. 3): significantly inhibited | inhibition of the OA:CAR ratio, tissue matched controls (FIG. 4): did not significantly inhibit | inhibition of antigen-induced contractions (stated as closely matched by Bee Bloom): ~−40%

Reference: patent publication US10300092B2, “Bee bloom compositions, methods of extraction and uses thereof” (KANE, Penny Coleen, priority 2011, dated 2019)
